This note sets out measurements from US9809568B2, “Compounds inhibiting leucine-rich repeat kinase enzyme activity” (Merck Sharp & Dohme Corp., priority 2013, dated 2017).

LRRK2(G2019S mutation, GST-LRRK2 (amino acids 970-2527)), sequence (Q5S007 970-2527 G2019S): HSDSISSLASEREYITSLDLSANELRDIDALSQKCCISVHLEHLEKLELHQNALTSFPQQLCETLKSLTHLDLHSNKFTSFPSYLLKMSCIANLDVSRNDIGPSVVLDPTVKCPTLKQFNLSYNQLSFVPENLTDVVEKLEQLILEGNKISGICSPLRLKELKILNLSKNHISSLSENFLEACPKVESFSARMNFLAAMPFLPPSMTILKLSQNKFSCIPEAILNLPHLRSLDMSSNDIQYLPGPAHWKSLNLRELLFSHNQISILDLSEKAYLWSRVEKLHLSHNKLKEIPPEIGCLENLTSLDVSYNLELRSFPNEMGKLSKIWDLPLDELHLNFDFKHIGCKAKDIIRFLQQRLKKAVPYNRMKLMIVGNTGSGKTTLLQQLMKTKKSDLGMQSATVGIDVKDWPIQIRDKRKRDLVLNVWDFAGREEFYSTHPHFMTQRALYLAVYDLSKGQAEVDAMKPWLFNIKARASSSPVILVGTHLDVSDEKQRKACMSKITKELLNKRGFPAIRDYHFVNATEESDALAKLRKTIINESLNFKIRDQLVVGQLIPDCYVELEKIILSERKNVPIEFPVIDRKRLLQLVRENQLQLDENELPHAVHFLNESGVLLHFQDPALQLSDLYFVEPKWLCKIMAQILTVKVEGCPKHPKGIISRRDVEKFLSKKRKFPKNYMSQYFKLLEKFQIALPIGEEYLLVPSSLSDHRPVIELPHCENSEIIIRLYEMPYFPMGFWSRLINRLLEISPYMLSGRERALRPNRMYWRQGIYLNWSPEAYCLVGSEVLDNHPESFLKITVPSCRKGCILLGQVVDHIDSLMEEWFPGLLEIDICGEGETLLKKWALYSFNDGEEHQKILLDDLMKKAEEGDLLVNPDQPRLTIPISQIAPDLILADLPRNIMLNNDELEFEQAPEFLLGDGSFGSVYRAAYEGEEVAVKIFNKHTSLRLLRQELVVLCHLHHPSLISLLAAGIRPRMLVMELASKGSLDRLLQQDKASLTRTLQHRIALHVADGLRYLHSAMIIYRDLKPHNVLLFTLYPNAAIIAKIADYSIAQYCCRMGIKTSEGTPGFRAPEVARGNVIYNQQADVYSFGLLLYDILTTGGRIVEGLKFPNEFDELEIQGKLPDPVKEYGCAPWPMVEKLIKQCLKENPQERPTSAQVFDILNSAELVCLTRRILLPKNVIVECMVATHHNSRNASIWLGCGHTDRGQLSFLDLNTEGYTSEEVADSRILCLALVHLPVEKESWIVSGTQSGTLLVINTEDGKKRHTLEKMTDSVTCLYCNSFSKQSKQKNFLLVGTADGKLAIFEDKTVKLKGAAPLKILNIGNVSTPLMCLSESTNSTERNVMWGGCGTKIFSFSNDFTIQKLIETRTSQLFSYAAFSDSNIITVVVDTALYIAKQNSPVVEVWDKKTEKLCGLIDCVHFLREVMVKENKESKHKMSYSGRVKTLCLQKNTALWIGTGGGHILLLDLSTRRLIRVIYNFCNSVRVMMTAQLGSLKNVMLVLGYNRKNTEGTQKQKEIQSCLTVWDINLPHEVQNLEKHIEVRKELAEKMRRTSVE

The test concerns the target LRRK2(G2019S mutation, GST-LRRK2 (amino acids 970-2527)) (Homo sapiens (Human), UniProt Q5S007, G2019S). The test is described as follows: LRRK2 Km ATP LanthaScreen Assay. Particulars: Km ATP LanthaScreen TR-FRET; G2019S LRRK2, LRRKtide substrate; mean IC50 of several tests. The class given is biochemical. From the text: Unless otherwise noted, all LRRK2 IC50 data presented in tables refers to the LRRK2 Km ATP LanthaScreen™ Assay that is described in the Biological Assay section.
The data presented for the Km ATP LanthaScreen™ Assay represents mean IC50 values based on several test results and may have reasonable deviations depending on the specific conditions and reagents used. Reagents for the LRRK2 Km ATP LanthaScreen™ Assay were purchased from Life Technologies Corporation.
LRRK2 Km ATP LanthaScreen™ Assay
• a) 400 nl of a 1:2.15 serial dilution of test compound (98 μM top assay concentration) is spotted via Labcyte Echo to certain wells in a 384 well black, untreated plate. Control wells contain 400 nl of either DMSO or 400 nl of a known inhibitor in DMSO. • b) 10 μl of a 2.5 nM LRRK2(G2019S mutation, GST-LRRK2 (amino acids 970-2527)) enzyme solution in 1× assay buffer (50 mM Tris pH 8.5, 10 mM MgCl2, 0.01% Brij-35, 1mM EGTA, 2 mM DTT, 0.05 mM NaVO4) is added to all wells. • c) A 30 minute room temperature incubation is followed by addition of 10 μl of 800 nM fluorescein labeled LRRKtide peptide substrate and 186 μM ATP solution in 1× assay buffer to all wells. • d) After a 60 minute room temperature incubation, 20 μl of TR-FRET Dilution Buffer (Invitrogen PV3756B) containing 4 nM Tb-labeled anti-phospho LRRKtide antibody and 20 mM EDTA is added to all wells. • e) Plates are incubated at room temperature for 1 hour and read on an Envision™ multi-mode plate reader with LanthaScreen™ settings. Results are analysed using Assay Data Analyzer.
A general note: Time-resolved FRET reads energy transfer from a long-lived donor to a nearby acceptor.
In general, IC50 refers to the concentration needed to halve the response being measured. As for `Cc1cc(-c2cnn(C)c2)cc2c(-c3ccnc(N4CCOCC4)c3)n[nH]c12` [Example 7], inhibition was half-maximal at 199 nM (IC50).

In turn, `Cc1cc(-c2cnn(C)c2)cc2c(-c3ccnc(N4CC[C@@H](F)C4)c3)n[nH]c12` [Example 12] yielded an IC50 of 380 nM.

Turning to `Cn1cc(-c2cc(F)c3[nH]nc(-c4ccnc(N5CC(F)C5)c4)c3c2)cn1` [Example 10], the IC50 is 8.2 nM. This IC50 is about 46-fold lower than that of the compound before.

In the case of `Cc1cc(-c2cnn(C)c2)cc2c(-c3ccnc(N4CCN(S(C)(=O)=O)CC4)c3)n[nH]c12` [Example 11], the IC50 stood at 218 nM.

`Cn1cc(-c2cc(Cl)c3[nH]nc(-c4ccnc(N5CCOCC5)c4)c3c2)cn1` [Example 8] registered an IC50 of 309 nM. The IC50 values of the last two compounds are within 1.5-fold of each other.

`CC(C)Oc1cc(F)c2[nH]nc(-c3ccnc(N4CCOCC4)c3)c2c1` [Example 4] came in with an IC50 of 12 nM.

`Fc1cc(-c2cnccn2)cc2c(-c3ccnc(N4CCOCC4)c3)n[nH]c12` [Example 6] showed an IC50 of 58 nM.
